{
  "source": "patent US20260262643A1",
  "about": "“HERBICIDAL BENZOXAZINES” (FMC CORPORATION, priority 2022, published 2026)",
  "key": {"soybean [1]": {"system": "soybean", "experiment": "Test C preemergence", "format": "in vivo, Glycine max", "method_in_brief": "(§1)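 Visual injury ratings on a 0–100 scale (100 = complete control) were made against untreated controls 10 days after treatment in the greenhouse. Compounds, formulated with surfactant in non-phytotoxic solvent, were sprayed on soil preemergence or onto one- to two-leaf plants 2–10 cm tall postemergence.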"}, "ryegrass, Italian [2]": {"system": "ryegrass, Italian", "experiment": "Test C postemergence", "format": "in vivo, Lolium multiflorum", "conditions": "10 days, 0 to 100 scale (0 no effect, 100 complete control)", "method_in_brief": "as §1"}, "kochia [3]": {"system": "kochia", "experiment": "Test C postemergence", "format": "in vivo, Bassia scoparia", "conditions": "10 days, 0 to 100 scale (0 no effect, 100 complete control)", "method_in_brief": "as §1"}, "kochia [4]": {"system": "kochia", "experiment": "Test C preemergence", "format": "in vivo, Bassia scoparia", "method_in_brief": "as §1"}, "barnyardgrass [5]": {"system": "barnyardgrass", "experiment": "Test D flooded paddy test", "format": "in vivo, Echinochloa crus-galli", "conditions": "250 g ai/ha, applied to paddy water, visual rating after 13 to 14 days, scale 0 to 100 (0 no effect, 100 complete control)", "method_in_brief": "(§2)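 Plants at the 2-leaf stage were grown in pots flooded to 3 cm, and compound was applied directly into the paddy water, with depth kept throughout. After 13–14 days in a greenhouse, injury was rated visually against untreated controls on a 0–100 scale (100 = complete control); a dash means not tested.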"}, "wheat [6]": {"system": "wheat", "experiment": "Test C preemergence", "format": "in vivo, Triticum aestivum", "method_in_brief": "as §1"}, "foxtail, giant [7]": {"system": "foxtail, giant", "experiment": "Test C postemergence", "format": "in vivo, Setaria faberi", "conditions": "10 days, 0 to 100 scale (0 no effect, 100 complete control)", "method_in_brief": "as §1"}, "horseweed": {"system": "horseweed", "experiment": "Test C postemergence", "format": "in vivo, Erigeron canadensis", "conditions": "10 days, 0 to 100 scale (0 no effect, 100 complete control)", "method_in_brief": "as §1"}, "blackgrass [8]": {"system": "blackgrass", "experiment": "Test C postemergence", "format": "in vivo, Alopecurus myosuroides", "conditions": "10 days, 0 to 100 scale (0 no effect, 100 complete control)", "method_in_brief": "as §1"}, "blackgrass [9]": {"system": "blackgrass", "experiment": "Test C preemergence", "format": "in vivo, Alopecurus myosuroides", "method_in_brief": "as §1"}, "oat, wild [10]": {"system": "oat, wild", "experiment": "Test C postemergence", "format": "in vivo, Avena fatua", "conditions": "10 days, 0 to 100 scale (0 no effect, 100 complete control)", "method_in_brief": "as §1"}, "barnyardgrass [11]": {"system": "barnyardgrass", "experiment": "Test C postemergence", "format": "in vivo, Echinochloa crusgalli", "conditions": "10 days, 0 to 100 scale (0 no effect, 100 complete control)", "method_in_brief": "as §1"}, "ducksalad": {"system": "ducksalad", "experiment": "Test D flooded paddy test", "format": "in vivo, Heteranthera limosa", "conditions": "250 g ai/ha, applied to paddy water, visual rating after 13 to 14 days, scale 0 to 100 (0 no effect, 100 complete control)", "method_in_brief": "as §2"}, "pigweed, palmer [12]": {"system": "pigweed, palmer", "experiment": "Test C preemergence", "format": "in vivo, Amaranthus palmeri", "method_in_brief": "as §1"}, "corn [13]": {"system": "corn", "experiment": "Test C postemergence", "format": "in vivo, Zea mays", "conditions": "10 days, 0 to 100 scale (0 no effect, 100 complete control)", "method_in_brief": "as §1"}, "galium": {"system": "galium", "experiment": "Test C postemergence", "format": "in vivo, Galium aparine", "conditions": "10 days, 0 to 100 scale (0 no effect, 100 complete control)", "method_in_brief": "as §1"}, "oat, wild [14]": {"system": "oat, wild", "experiment": "Test C preemergence", "format": "in vivo, Avena fatua", "method_in_brief": "as §1"}, "sedge, umbrella": {"system": "sedge, umbrella", "experiment": "Test D flooded paddy test", "format": "in vivo, Cyperus difformis", "conditions": "250 g ai/ha, applied to paddy water, visual rating after 13 to 14 days, scale 0 to 100 (0 no effect, 100 complete control)", "method_in_brief": "as §2"}, "rice": {"system": "rice", "experiment": "Test D flooded paddy test", "format": "in vivo, Oryza sativa", "conditions": "250 g ai/ha, applied to paddy water, visual rating after 13 to 14 days, scale 0 to 100 (0 no effect, 100 complete control)", "method_in_brief": "as §2"}, "ryegrass, Italian [15]": {"system": "ryegrass, Italian", "experiment": "Test C preemergence", "format": "in vivo, Lolium multiflorum", "method_in_brief": "as §1"}, "foxtail, giant [16]": {"system": "foxtail, giant", "experiment": "Test C preemergence", "format": "in vivo, Setaria faberi", "method_in_brief": "as §1"}, "ragweed [17]": {"system": "ragweed", "experiment": "Test C postemergence", "format": "in vivo, Ambrosia artemisiifolia", "conditions": "10 days, 0 to 100 scale (0 no effect, 100 complete control)", "method_in_brief": "as §1"}, "wheat [18]": {"system": "wheat", "experiment": "Test C postemergence", "format": "in vivo, Triticum aestivum", "conditions": "10 days, 0 to 100 scale (0 no effect, 100 complete control)", "method_in_brief": "as §1"}, "corn [19]": {"system": "corn", "experiment": "Test C preemergence", "format": "in vivo, Zea mays", "method_in_brief": "as §1"}, "pigweed, palmer [20]": {"system": "pigweed, palmer", "experiment": "Test C postemergence", "format": "in vivo, Amaranthus palmeri", "conditions": "10 days, 0 to 100 scale (0 no effect, 100 complete control)", "method_in_brief": "as §1"}, "barnyardgrass [21]": {"system": "barnyardgrass", "experiment": "Test C preemergence", "format": "in vivo, Echinochloa crusgalli", "method_in_brief": "as §1"}, "soybean [22]": {"system": "soybean", "experiment": "Test C postemergence", "format": "in vivo, Glycine max", "conditions": "10 days, 0 to 100 scale (0 no effect, 100 complete control)", "method_in_brief": "as §1"}, "ragweed [23]": {"system": "ragweed", "experiment": "Test C preemergence", "format": "in vivo, Ambrosia artemisiifolia", "method_in_brief": "as §1"}, "[24]": {"conditions": "500 g ai/ha, preemergence, 0 to 100 scale (0 no effect, 100 complete control)"}, "[25]": {"conditions": "Preemergence, 125 g ai/ha, 0 to 100 scale, 0 no effect, 100 complete control"}},
  "data": [
    {"compound": "C[C@H]1CN(C(=O)c2cc(-n3cncn3)cc(C(F)(F)F)c2)c2cccc(Cl)c2O1", "note": "[Compound 335]", "values": [
      {"measurement": "Soybean plant response rating", "setting": "soybean [1]; [24]", "value": 30},
      {"measurement": "Plant response rating, Soybean", "setting": "soybean [1]; [25]", "value": 0},
      {"measurement": "Plant response rating, Ryegrass, Italian", "setting": "ryegrass, Italian [2]; 500 g ai/ha, postemergence", "value": 30},
      {"measurement": "Plant response rating, Ryegrass, Italian", "setting": "ryegrass, Italian [2]; Postemergence, 125 g ai/ha", "value": 10},
      {"measurement": "Plant response rating, Kochia", "setting": "kochia [3]; 500 g ai/ha, postemergence", "value": 30},
      {"measurement": "Plant response rating, Kochia", "setting": "kochia [3]; Postemergence, 125 g ai/ha", "value": 10},
      {"measurement": "Kochia plant response rating", "setting": "kochia [4]; [24]", "value": 20},
      {"measurement": "Plant response rating, Kochia", "setting": "kochia [4]; [25]", "value": 0},
      {"measurement": "Plant response rating, Barnyardgrass (Flood)", "setting": "barnyardgrass [5]", "value": 0},
      {"measurement": "Wheat plant response rating", "setting": "wheat [6]; [24]", "value": 0},
      {"measurement": "Plant response rating, Wheat", "setting": "wheat [6]; [25]", "value": 0},
      {"measurement": "Plant response rating, Foxtail, Giant", "setting": "foxtail, giant [7]; 500 g ai/ha, postemergence", "value": 50},
      {"measurement": "Plant response rating, Foxtail, Giant", "setting": "foxtail, giant [7]; Postemergence, 125 g ai/ha", "value": 20},
      {"measurement": "Plant response rating, Horseweed", "setting": "horseweed; 500 g ai/ha, postemergence", "value": 0},
      {"measurement": "Plant response rating, Horseweed", "setting": "horseweed; Postemergence, 125 g ai/ha", "value": 0},
      {"measurement": "Plant response rating, Blackgrass", "setting": "blackgrass [8]; 500 g ai/ha, postemergence", "value": 20},
      {"measurement": "Plant response rating, Blackgrass", "setting": "blackgrass [8]; Postemergence, 125 g ai/ha", "value": 0},
      {"measurement": "Blackgrass plant response rating", "setting": "blackgrass [9]; [24]", "value": 80},
      {"measurement": "Plant response rating, Blackgrass", "setting": "blackgrass [9]; [25]", "value": 20},
      {"measurement": "Plant response rating, Oat, Wild", "setting": "oat, wild [10]; 500 g ai/ha, postemergence", "value": 0},
      {"measurement": "Plant response rating, Oat, Wild", "setting": "oat, wild [10]; Postemergence, 125 g ai/ha", "value": 0},
      {"measurement": "Plant response rating, Barnyardgrass", "setting": "barnyardgrass [11]; 500 g ai/ha, postemergence", "value": 20},
      {"measurement": "Plant response rating, Barnyardgrass", "setting": "barnyardgrass [11]; Postemergence, 125 g ai/ha", "value": 10},
      {"measurement": "Plant response rating, Ducksalad (Flood)", "setting": "ducksalad", "value": 35},
      {"measurement": "Pigweed, Palmer plant response rating", "setting": "pigweed, palmer [12]; [24]", "value": 60},
      {"measurement": "Plant response rating, Pigweed, Palmer", "setting": "pigweed, palmer [12]; [25]", "value": 0},
      {"measurement": "Plant response rating, Corn", "setting": "corn [13]; 500 g ai/ha, postemergence", "value": 10},
      {"measurement": "Plant response rating, Corn", "setting": "corn [13]; Postemergence, 125 g ai/ha", "value": 10},
      {"measurement": "Plant response rating, Galium", "setting": "galium; 500 g ai/ha, postemergence", "value": 50},
      {"measurement": "Plant response rating, Galium", "setting": "galium; Postemergence, 125 g ai/ha", "value": 50},
      {"measurement": "Oat, Wild plant response rating", "setting": "oat, wild [14]; [24]", "value": 10},
      {"measurement": "Plant response rating, Oat, Wild", "setting": "oat, wild [14]; [25]", "value": 0},
      {"measurement": "Plant response rating, Sedge, Umbrella (Flood)", "setting": "sedge, umbrella", "value": 35},
      {"measurement": "Plant response rating, Rice (Flood)", "setting": "rice", "value": 0},
      {"measurement": "Ryegrass, Italian plant response rating", "setting": "ryegrass, Italian [15]; [24]", "value": 80},
      {"measurement": "Plant response rating, Ryegrass, Italian", "setting": "ryegrass, Italian [15]; [25]", "value": 30},
      {"measurement": "Foxtail, Giant plant response rating", "setting": "foxtail, giant [16]; [24]", "value": 90},
      {"measurement": "Plant response rating, Foxtail, Giant", "setting": "foxtail, giant [16]; [25]", "value": 30},
      {"measurement": "Plant response rating, Ragweed", "setting": "ragweed [17]; 500 g ai/ha, postemergence", "value": 20},
      {"measurement": "Plant response rating, Ragweed", "setting": "ragweed [17]; Postemergence, 125 g ai/ha", "value": 0},
      {"measurement": "Plant response rating, Wheat", "setting": "wheat [18]; 500 g ai/ha, postemergence", "value": 20},
      {"measurement": "Plant response rating, Wheat", "setting": "wheat [18]; Postemergence, 125 g ai/ha", "value": 10},
      {"measurement": "Corn plant response rating", "setting": "corn [19]; [24]", "value": 10},
      {"measurement": "Plant response rating, Corn", "setting": "corn [19]; [25]", "value": 0},
      {"measurement": "Plant response rating, Pigweed, Palmer", "setting": "pigweed, palmer [20]; 500 g ai/ha, postemergence", "value": 60},
      {"measurement": "Plant response rating, Pigweed, Palmer", "setting": "pigweed, palmer [20]; Postemergence, 125 g ai/ha", "value": 10},
      {"measurement": "Barnyardgrass plant response rating", "setting": "barnyardgrass [21]; [24]", "value": 60},
      {"measurement": "Plant response rating, Barnyardgrass", "setting": "barnyardgrass [21]; [25]", "value": 20},
      {"measurement": "Plant response rating, Soybean", "setting": "soybean [22]; 500 g ai/ha, postemergence", "value": 100},
      {"measurement": "Plant response rating, Soybean", "setting": "soybean [22]; Postemergence, 125 g ai/ha", "value": 90},
      {"measurement": "Ragweed plant response rating", "setting": "ragweed [23]; [24]", "value": 0},
      {"measurement": "Plant response rating, Ragweed", "setting": "ragweed [23]; [25]", "value": 0}
    ]}
  ]
}
